This passage reports relative viability results from the supplement of paper PMC10307832.

Common to all, as to experiment: relative viability (nuclei count vs DMSO), 5 days (fraction); higher = more cells survive
Compound in the assay “DM3189 + Decitabine”: C1CN(CCN1)C2=CC=C(C=C2)C3=CN4C(=C(C=N4)C5=CC=NC6=CC=CC=C56)N=C3 [DM3189] + Nc1ncn([C@H]2C[C@H](O)[C@@H](CO)O2)c(=O)n1 [Decitabine] (partner 2 µM)
The procedure, abridged: (§1)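 Lung cancer cell lines, seeded in 1536-well plates, were treated the following day by pin tool with a single drug or with five library-drug doses (not always all listed) in √10 steps on top of a fixed anchor-drug dose. Cells were fixed and nuclei stained in one step after 5 days, and nuclei were counted. Relative viability is the nuclei count for treated wells divided by that for vehicle wells, reported as medians of duplicate plates.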

Compound in the assay “DM3189 + Dasatinib”: C1CN(CCN1)C2=CC=C(C=C2)C3=CN4C(=C(C=N4)C5=CC=NC6=CC=CC=C56)N=C3 [DM3189] + Cc1nc(Nc2ncc(C(=O)Nc3c(C)cccc3Cl)s2)cc(N2CCN(CCO)CC2)n1 [Dasatinib] (partner 0.075 µM)
The method in brief: as §1

Compound in the assay “DM3189 + Navitoclax”: C1CN(CCN1)C2=CC=C(C=C2)C3=CN4C(=C(C=N4)C5=CC=NC6=CC=CC=C56)N=C3 [DM3189] + CC1(C)CCC(c2ccc(Cl)cc2)=C(CN2CCN(c3ccc(C(=O)NS(=O)(=O)c4ccc(N[C@H](CCN5CCOCC5)CSc5ccccc5)c(S(=O)(=O)C(F)(F)F)c4)cc3)CC2)C1 [Navitoclax] (partner 0.5 µM)
The method in brief:
as §1

Compound in the assay “DM3189 + Foretinib”: C1CN(CCN1)C2=CC=C(C=C2)C3=CN4C(=C(C=N4)C5=CC=NC6=CC=CC=C56)N=C3 [DM3189] + COc1cc2c(Oc3ccc(NC(=O)C4(C(=O)Nc5ccc(F)cc5)CC4)cc3F)ccnc2cc1OCCCN1CCOCC1 [Foretinib] (partner 0.25 µM)
The method in brief: as §1

Compound in the assay “DM3189 + Olaparib”: C1CN(CCN1)C2=CC=C(C=C2)C3=CN4C(=C(C=N4)C5=CC=NC6=CC=CC=C56)N=C3 [DM3189] + O=C(c1cc(Cc2n[nH]c(=O)c3ccccc23)ccc1F)N1CCN(C(=O)C2CC2)CC1 [Olaparib] (partner 8 µM)
The procedure, abridged: as §1

For the cell line NCI-H1975, the relative viability in the assay with DM3189 + Decitabine (first compound 0.08 µM) was determined as 0.374; with DM3189 + Decitabine (first compound 0.253 µM), 0.41; with DM3189 + Decitabine (first compound 0.8 µM) it was 0.361; with DM3189 + Decitabine (first compound 2.53 µM), 0.336; with DM3189 + Dasatinib (first compound 0.08 µM), 0.421; with DM3189 + Dasatinib (first compound 0.253 µM), 0.357. For the same cell line, the relative viability was determined as 0.314 with DM3189 + Dasatinib (first compound 0.8 µM); 0.332 in the assay with DM3189 + Dasatinib (first compound 2.53 µM); 1.16 with DM3189 + Navitoclax (first compound 0.08 µM); 1.08 in the assay with DM3189 + Navitoclax (first compound 0.253 µM); 0.858 in the assay with DM3189 + Navitoclax (first compound 0.8 µM); 0.821 with DM3189 + Navitoclax (first compound 2.53 µM). Besides, the relative viability was found to be 1.02 in the assay with DM3189 + Foretinib (first compound 0.08 µM); 0.871 with DM3189 + Foretinib (first compound 0.253 µM); 0.898 with DM3189 + Foretinib (first compound 0.8 µM); 0.782 in the assay with DM3189 + Foretinib (first compound 2.53 µM); 0.952 with DM3189 + Olaparib (first compound 0.08 µM); 0.777 with DM3189 + Olaparib (first compound 0.253 µM). Also, the relative viability was 0.646 with DM3189 + Olaparib (first compound 0.8 µM) and 0.639 in the assay with DM3189 + Olaparib (first compound 2.53 µM).
On to A-427, for which the relative viability with DM3189 + Decitabine (first compound 0.08 µM) was 0.591; with DM3189 + Decitabine (first compound 0.253 µM), 0.546; with DM3189 + Decitabine (first compound 0.8 µM), 0.541; with DM3189 + Decitabine (first compound 2.53 µM), 0.618; with DM3189 + Dasatinib (first compound 0.08 µM) it was 0.765; with DM3189 + Dasatinib (first compound 0.253 µM), 0.78. The relative viability with DM3189 + Dasatinib (first compound 0.8 µM) stood at 0.684; with DM3189 + Dasatinib (first compound 2.53 µM), 0.732; with DM3189 + Navitoclax (first compound 0.08 µM), 0.937; with DM3189 + Navitoclax (first compound 0.253 µM) it was 0.936; with DM3189 + Navitoclax (first compound 0.8 µM), 0.893; in the assay with DM3189 + Navitoclax (first compound 2.53 µM), 1.13. Further, the relative viability in the assay with DM3189 + Foretinib (first compound 0.08 µM) came out at 1.09; in the assay with DM3189 + Foretinib (first compound 0.253 µM) it was 1.23; with DM3189 + Foretinib (first compound 0.8 µM), 1.04; in the assay with DM3189 + Foretinib (first compound 2.53 µM), 1.22; with DM3189 + Olaparib (first compound 0.08 µM), 0.832; with DM3189 + Olaparib (first compound 0.253 µM) it was 0.753. Moreover, the relative viability with DM3189 + Olaparib (first compound 0.8 µM) was 0.512; with DM3189 + Olaparib (first compound 2.53 µM), 0.807.
As to LXF-289, the relative viability with DM3189 + Decitabine (first compound 0.08 µM) stood at 0.391; with DM3189 + Decitabine (first compound 0.253 µM) it was 0.389; with DM3189 + Decitabine (first compound 0.8 µM), 0.438; with DM3189 + Decitabine (first compound 2.53 µM), 0.421; in the assay with DM3189 + Dasatinib (first compound 0.08 µM), 0.264; with DM3189 + Dasatinib (first compound 0.253 µM), 0.197. For the same cell line, the relative viability was 0.189 with DM3189 + Dasatinib (first compound 0.8 µM); 0.223 in the assay with DM3189 + Dasatinib (first compound 2.53 µM); 0.983 with DM3189 + Navitoclax (first compound 0.08 µM); 0.927 with DM3189 + Navitoclax (first compound 0.253 µM); 0.932 with DM3189 + Navitoclax (first compound 0.8 µM); 1.07 with DM3189 + Navitoclax (first compound 2.53 µM). The relative viability stood at 0.982 with DM3189 + Foretinib (first compound 0.08 µM); 0.963 with DM3189 + Foretinib (first compound 0.253 µM); 0.987 with DM3189 + Foretinib (first compound 0.8 µM); 1.02 with DM3189 + Foretinib (first compound 2.53 µM); 1.08 in the assay with DM3189 + Olaparib (first compound 0.08 µM); 1.06 with DM3189 + Olaparib (first compound 0.253 µM). The relative viability with DM3189 + Olaparib (first compound 0.8 µM) was 1.06; in the assay with DM3189 + Olaparib (first compound 2.53 µM), 1.11.
Consider NCI-H838, for which the relative viability with DM3189 + Decitabine (first compound 0.08 µM) stood at 0.446; with DM3189 + Decitabine (first compound 0.253 µM), 0.458; with DM3189 + Decitabine (first compound 0.8 µM), 0.431; in the assay with DM3189 + Decitabine (first compound 2.53 µM), 0.525; with DM3189 + Dasatinib (first compound 0.08 µM), 0.346; in the assay with DM3189 + Dasatinib (first compound 0.253 µM) it was 0.303. Further, the relative viability is 0.261 with DM3189 + Dasatinib (first compound 0.8 µM); 0.274 with DM3189 + Dasatinib (first compound 2.53 µM); 1.15 with DM3189 + Navitoclax (first compound 0.08 µM); 1.09 with DM3189 + Navitoclax (first compound 0.253 µM); 0.904 with DM3189 + Navitoclax (first compound 0.8 µM); 1.23 in the assay with DM3189 + Navitoclax (first compound 2.53 µM). Moreover, the relative viability in the assay with DM3189 + Foretinib (first compound 0.08 µM) came out at 0.951; in the assay with DM3189 + Foretinib (first compound 0.253 µM) it was 0.891; with DM3189 + Foretinib (first compound 0.8 µM) it was 0.689; in the assay with DM3189 + Foretinib (first compound 2.53 µM), 0.895; with DM3189 + Olaparib (first compound 0.08 µM), 0.871; in the assay with DM3189 + Olaparib (first compound 0.253 µM), 0.711. Further, the relative viability was determined as 0.543 with DM3189 + Olaparib (first compound 0.8 µM) and 0.556 with DM3189 + Olaparib (first compound 2.53 µM).
